Measured values taken from article PMC6657668, “Porcine Beta-Defensin 2 Provides Protection Against Bacterial Infection by a Direct Bactericidal Activity and Alleviates Inflammation via Interference With the TLR4/NF-κB Pathway” (Frontiers in Immunology, 2019).
Where a SMILES comes first, the peptide text is derived from it.

How the values were obtained:
S. Typhimurium = experiment: Serum cytokine levels of mice infected with S. Typhimurium (ELISA); assay type: in vivo, Salmonella Typhimurium 14028 (in mice); details: 24 h, n = 6
Method: At 24 h post-infection, blood samples of the mice were collected to detect cytokines IL-6 (# EMC004.96), tumor necrosis factor-α (TNF-α, # EMC102a.96), IL-1β (# EMC001b.96), and IL-12 (# EMC006.96) using ELISA kits (Neo-bioscience Technology Company, Shenzhen China). For cytokine detections in the WT mice with or without treatment of PBD-2, the blood samples were collected from the WT mice orally administered with solely 2.5 × 10^8 CFU of S. Typhimurium (n = 6) or together with PBD-2 at 5 mg/kg body weight (n = 6).

NF-κB [1] = experiment: NF-κB promoter activity, luciferase reporter assay in RAW 264.7 cells; assay type: cell-based, mouse; details: n = 6
Method: A luciferase reporter assay was used to detect the promoter activity of NF-κB. RAW 264.7 cells were seeded in a 24-well plate for 24 h and then cotransfected with 800 ng/well of the NF-κB reporter plasmid (pGL3-Basic) and 20 ng/well of pLR-TK. WT […] luciferase (Rluc) served as the reporter gene control vector. […] In the inhibition assay, the cells were pre-treated with 1 μg/ml TLR4 inhibitor for 1 h and treated with LPS (1 μg/ml) alone or together with PBD-2 (10 μg/mL) for 24 h (n = 6 each group). Luciferase units were detected to show the promoter activity of NF-κB ([28]).

NF-κB [2] = experiment: mRNA level of NF-κB in RAW 264.7 cells (RT-PCR); assay type: cell-based, mouse; details: LPS 1 μg/ml with PBD-2 10 μg/mL, 4 h; n = 6
Method: The cDNA of the RAW 264.7 cells treated with LPS (1 μg/ml) alone or together with PBD-2 (10 μg/mL) for 4 h (n = 6 each group) was used as a template by using the primers NF-κB-01 ([…]) and NF-κB-02 ([…]) and the primers GAPDH-01 and GAPDH-02 for the housekeeping gene GAPDH to detect the expression level of NF-κB. The relative expression level of NF-κB is shown as 2^−ΔCt (mean ± SEM), where ΔCt = Ct NF−κB−CtGAPDH. The protocol consisted of 40 replication cycles. The Ct values above 34 cycles were considered non-detectable.

[3] = assay type: binding, Escherichia coli O55:B5; details: ITC, 25°C; PBD-2 0.75 mM in syringe, LPS in cell (0.010 to 0.050 mM; Figure S6: 0.050 mM)
TLR4 [4] = target: T1, TLR4 (Mus musculus, UniProt Q9QUK6); experiment: Interaction with TLR4, far-Western blot; assay type: binding; details: PBD-2 10 μg/ml, 37°C, 2 h
T1 construct: purchased Cloud-clone, Wuhan, China RPA753Mu01
T1 sequence (Q9QUK6 26-835): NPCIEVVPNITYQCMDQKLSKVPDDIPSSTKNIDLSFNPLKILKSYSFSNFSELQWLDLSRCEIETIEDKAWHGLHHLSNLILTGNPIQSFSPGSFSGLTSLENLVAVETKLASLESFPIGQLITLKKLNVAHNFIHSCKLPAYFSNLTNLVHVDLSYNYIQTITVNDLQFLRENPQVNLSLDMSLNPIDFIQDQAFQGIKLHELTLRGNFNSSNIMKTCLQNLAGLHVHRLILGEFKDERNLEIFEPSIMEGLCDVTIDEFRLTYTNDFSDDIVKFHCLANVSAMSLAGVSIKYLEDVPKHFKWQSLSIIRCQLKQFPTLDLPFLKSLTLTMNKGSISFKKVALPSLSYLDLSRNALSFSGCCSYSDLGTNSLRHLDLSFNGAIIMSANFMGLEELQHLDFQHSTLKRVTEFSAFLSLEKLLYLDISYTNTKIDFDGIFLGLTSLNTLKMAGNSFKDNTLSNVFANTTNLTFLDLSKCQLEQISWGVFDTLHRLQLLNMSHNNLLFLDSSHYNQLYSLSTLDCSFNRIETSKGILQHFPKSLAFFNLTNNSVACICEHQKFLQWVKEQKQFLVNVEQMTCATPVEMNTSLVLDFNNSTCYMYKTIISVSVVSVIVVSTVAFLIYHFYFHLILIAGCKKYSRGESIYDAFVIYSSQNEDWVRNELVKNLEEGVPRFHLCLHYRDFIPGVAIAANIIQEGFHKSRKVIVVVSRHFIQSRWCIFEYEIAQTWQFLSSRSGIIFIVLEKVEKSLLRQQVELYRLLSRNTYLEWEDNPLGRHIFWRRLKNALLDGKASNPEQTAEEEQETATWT
Method: (§1) TLR4 and BSA proteins as a control were subject to SDS-PAGE and electro-transferred onto a PVDF membrane. The PVDF membrane was blocked with 10 μg/ml BSA in PBST at 37°C for 2 h, washed five times with PBST and incubated with PBST that contained 10 μg/ml PBD-2 or 10 μg/ml BSA as a control at 37°C for 2 h. After the membranes were washed, the PVDF membrane was incubated with anti-PBD-2 antisera (with a titer 1:500,000) at 37°C for 2 h and washed five times with PBST. The membrane was then incubated with the secondary antibodies, namely, goat anti-mouse IgG (# AS003, ABclonal®, Wuhan, China), at 37°C for 2 h and washed five times with PBST. Lastly, immune-reactive bands were detected using an ECF Western blot system (Tanon 5200 Multi, Shanghai, China).

BSA = experiment: Interaction with BSA (control), far-Western blot; assay type: binding, bovine; details: PBD-2 10 μg/ml, 37°C, 2 h
Method: as §1

TLR4 [5] = experiment: Interaction of PBD-2 with TLR4 in RAW 264.7 cells, coimmunoprecipitation; assay type: binding, mouse; details: PBD-2 1, 10, 30, and 50 μg/ml, 16 h, captured with PBD-2 antisera
Method: A Co-IP assay was conducted using a Co-IP kit (# abs955, Absin®, Shanghai, China) in accordance with the manufacturer's instructions. In brief, RAW 264.7 cells were cultured in dishes of 10 cm in diameter. The cells (1 × 10^7) were treated with different concentrations of PBD-2 (1, 10, 30, and 50 μg/ml) for 16 h and lysed using a lysis buffer that contained protease inhibitors […]. The soluble faction of the cell lysate was collected after centrifugation at 14,000 × g at 4°C for 10 min. Afterwards, 2 μl of PBD-2 antisera (with titer 1:500,000) or 2 μl of mouse IgG antisera (# sc-2025, Santa Cruz®, CA, USA) as control were incubated with 200 μg of the cell lysate at 4°C for 12 h. Protein A/G beads (5 μl) were added and incubated at 4°C for 12 h. The precipitates with the immune complexes were collected by centrifugation at 12,000 × g at 4°C for 1 min. The beads were washed with a wash buffer. TLR4 in the precipitates was detected with Western blot by using an antibody against TLR4 (# sc-293072, Santa Cruz®, Santa Cruz, CA, USA).

[6] = PBD-2 overexpressed in TG pigs; ref [16]; cited from earlier work
Description: The antibiotic resistance of pathogenic bacteria has become a global threat ([30]). Defensins are natural peptides secreted by many species and implicated in resisting bacterial infection ([31]). PBD-2 is one of the defensins expressed in pigs. […] The invasion of S. Typhimurium can increase the expression of PBD-2 in porcine epithelial cells ([32]). […] PBD-2 also improves the growth perf ...

[7] = ref [11]; cited from earlier work
[8] = PBD-2 expressed in TG mice, oral 2.5 × 10^8 CFU S. Typhimurium, vs WT
[9] = synthetic PBD-2 5 mg/kg orally with 2.5 × 10^8 CFU S. Typhimurium, WT mice, vs infection alone

CC[C@H](C)[C@H](NC(=O)[C@@H]1CSSC[C@@H]2NC(=O)[C@@H]3CCCN3C(=O)[C@H](CO)NC(=O)[C@H](Cc3ccccc3)NC(=O)[C@H](CC(N)=O)NC(=O)[C@@H]3CSSC[C@H](NC(=O)[C@H]([C@@H](C)O)NC(=O)CNC(=O)[C@H](CCC(=O)O)NC(=O)[C@H]([C@@H](C)CC)NC(=O)[C@H](CCCNC(=N)N)NC(=O)[C@H](CC(N)=O)NC(=O)[C@H](Cc4ccccc4)NC(=O)[C@H](CC(C)C)NC(=O)[C@@H]4CCCN4C2=O)C(=O)N[C@@H](Cc2ccc(O)cc2)C(=O)N[C@@H](CO)C(=O)NCC(=O)N[C@@H](CCCCN)C(=O)N[C@@H](C)C(=O)N[C@@H](CCCCN)C(=O)N[C@@H](CSSC[C@H](NC(=O)[C@@H](NC(=O)[C@H](Cc2ccc(O)cc2)NC(=O)[C@H](Cc2c[nH]cn2)NC(=O)[C@@H](N)CC(=O)O)[C@@H](C)CC)C(=O)N[C@@H](C)C(=O)N[C@@H](CCCCN)C(=O)N[C@@H](CCCCN)C(=O)NCC(=O)NCC(=O)N[C@@H]([C@@H](C)O)C(=O)N3)C(=O)N1)C(=O)N[C@@H](CCCNC(=N)N)C(=O)O [PBD-2, Porcine beta-defensin 2] (HELM PEPTIDE1{D.H.Y.I.C.A.K.K.G.G.T.C.N.F.S.P.C.P.L.F.N.R.I.E.G.T.C.Y.S.G.K.A.K.C.C.I.R}$PEPTIDE1,PEPTIDE1,5:R3-34:R3|PEPTIDE1,PEPTIDE1,12:R3-27:R3|PEPTIDE1,PEPTIDE1,17:R3-35:R3$$$V2.0; N-terminus and C-terminus assumed)
level of IL-1β in serum (S. Typhimurium; [8]): significantly lower than those of the WT mice (p < 0.05) | level of IL-6 in serum (S. Typhimurium; [8]): significantly lower than those of the WT mice (p < 0.05) | level of IL-12 in serum (S. Typhimurium; [8]): significantly lower than those of the WT mice (p < 0.05) | level of TNF-α in serum (S. Typhimurium; [8]): significantly lower than those of the WT mice (p < 0.05) | level of IL-1β in serum (S. Typhimurium; [9]): significantly lower levels of proinflammatory cytokines than the mice infected with S. Typhimurium alone did (p < 0.05) | level of IL-6 in serum (S. Typhimurium; [9]): significantly lower levels of proinflammatory cytokines than the mice infected with S. Typhimurium alone did (p < 0.05) | level of IL-12 in serum (S. Typhimurium; [9]): significantly lower levels of proinflammatory cytokines than the mice infected with S. Typhimurium alone did (p < 0.05) | level of TNF-α in serum (S. Typhimurium; [9]): significantly lower levels of proinflammatory cytokines than the mice infected with S. Typhimurium alone did (p < 0.05) | NF-κB promoter activity after LPS induction (NF-κB [1]; LPS 1 μg/ml with PBD-2 10 μg/mL, 24 h): inhibited the promoter activities of NF-κB after LPS induction (p < 0.01) | NF-κB promoter activity in the presence of TLR4 inhibitor (NF-κB [1]; PBD-2 10 μg/mL with LPS 1 μg/ml, 24 h, after CLI-095 1 μg/ml): did not influence the NF-κB promoter activity in the presence of TLR4 inhibitor (NS, p > 0.05) | inhibitory effect on NF-κB promoter activity after pre-incubation with PBD-2 (NF-κB [1]; PBD-2 10, 30, and 60 μg/ml for 30, 60, 120, or 240 min, then LPS): positively correlated with dose and incubation time with PBD-2 (p < 0.05) | mRNA levels of NF-κB after LPS induction (NF-κB [2]): reduce the mRNA levels of NF-κB after LPS induction (p < 0.01) | binding to LPS [3]: did not bind to LPS | binding to TLR4 on PVDF membrane (TLR4 [4]): could bind to TLR4 | binding to BSA on PVDF membrane (BSA): not to BSA | coimmunoprecipitation of TLR4 with PBD-2 (TLR4 [5]): could react with the antibody against TLR4 | bactericidal activity of the serum of TG pigs [6]: higher than that of WT pigs | hemolytic activity [7]: limited hemolytic activity
